Test results published in patent US8034904B2, “Anti-IGF-I receptor antibody” (Immunogen Inc., priority 2002, dated 2011).

Legend:
[1] = Bhuyan et al., 1982; cited from earlier work
[2] = test system: Human non-small cell lung cancer Calu-6 xenografts; type: in vivo; conditions: established 100 mm^3 Calu-6 xenografts; EM164 0.8 mg/mouse i.v. x6; taxol 15 mg/kg i.p. x5
Source text: Human non-small cell lung cancer Calu-6 xenografts were established in immunodeficient mice by subcutaneous injections of 1×10^7 Calu-6 cells.

[3] = test system: multiple myeloma; conditions: previously untreated stages I or II myeloma; cited from earlier work
[4] = test system: MCF-7 (breast) cells; assay: Growth and survival of MCF-7 cells (MTT assay); type: cell-based, human
Description: (§1) Several human tumor cell lines were tested in serum-free conditions for their growth and survival response to IGF-I. These cell lines were treated with EM164 antibody in the presence of IGF-I, IGF-II, or serum, and their growth and survival responses were measured using an MTT assay after 2-4 days. Approximately 1500 cells were plated in a 96-well plate in regular medium with serum, which was replaced with serum-free medium the following day (either serum-free RPMI medium supplemented with transferrin and BSA, or phenol-red free medium as specified by Dufourny, B. et al., 1997, J. Biol. Chem., 272, 31163-31171). After one day of growth in serum-free medium, the cells were incubated with about 75 μL of 10 μg/mL antibody for 30 min.-3 h, followed by the addition of 25 μL of IGF-I (or IGF-II or serum) solution to obtain a final concentration of 10 ng/mL IGF-I, or 20 ng/mL IGF-II, or 0.04-10% serum. In some experiments, the cells were stimulated first with IGF-I for 15 min before the addition of EM164 antibody, or both IGF-I and EM164 antibody were added together. The cells were then allowed to grow for another 2-3 days. A solution of MTT (3-(4,5)-dimethylthiazol-2-yl)-2,5-diphenyltetrazolium bromide; 25 μL of a 5 mg/mL solution in PBS) was then added and the cells were returned to the incubator for 2-3 h. The medium was then removed and replaced by 100 μL DMSO, mixed, and the absorbance of the plate was measured at 545 nm.

[5] = test system: HT-3 (cervical) cells; assay: Growth and survival of HT-3 cells (MTT assay); type: cell-based, human; conditions: 10 ng/mL IGF-I, 3- to 4-day
Description: as §1, with “A solution of MTT (3-(4,5)-dimethylthiazol-2-yl)-2,5-diphenyltetrazolium bromide; 25 μL of a 5 mg/mL solution in PBS) was then added and the cells were returned to the incubator for 2-3 h.” left out

[6] = test system: Colo 205 (colon) cells; assay: Growth and survival of Colo 205 cells (MTT assay); type: cell-based, human; conditions: 10 ng/mL IGF-I, 3- to 4-day
Description: as §1

[7] = test system: HT-29 colon cancer cells; assay: Growth and survival of HT-29 cells (MTT assay, colony formation); type: cell-based, human; conditions: HT-29; 10 ng/mL IGF-I, 3- to 4-day
Description: as §1

[8] = test system: NCI-H838 (lung) cells; assay: Growth and survival of NCI-H838 cells (MTT assay); type: cell-based, human; conditions: NCI-H838 (lung); 10 ng/mL IGF-I, 3- to 4-day
Description: as §1

[9] = test system: Calu-6 non-small cell lung cancer cells; assay: Growth and survival of Calu-6 cells (MTT assay); type: cell-based, human; conditions: 10 ng/mL IGF-I, 3- to 4-day
Description: as §1

[10] = test system: SK-LU-1 cells; assay: Growth and survival of SK-LU-1 cells (MTT assay); type: cell-based, human; conditions: 10 ng/mL IGF-I, 3- to 4-day
Description: as §1

[11] = test system: NCI-H596 cells; assay: Growth and survival of NCI-H596 cells (MTT assay); type: cell-based, human; conditions: 10 ng/mL IGF-I, 3- to 4-day
Description: as §1

[12] = test system: A 549 cells; assay: Growth and survival of A 549 cells (MTT assay); type: cell-based, human; conditions: 10 ng/mL IGF-I, 3- to 4-day
Description: as §1, with “A solution of MTT (3-(4,5)-dimethylthiazol-2-yl)-2,5-diphenyltetrazolium bromide; 25 μL of a 5 mg/mL solution in PBS) was then added and the cells were returned to the incubator for 2-3 h.” left out

[13] = test system: A 375 (melanoma) cells; assay: Growth and survival of A 375 cells (MTT assay); type: cell-based, human; conditions: 10 ng/mL IGF-I, 3- to 4-day
Description: as §1

[14] = test system: SK-Mel-37 cells; assay: Growth and survival of SK-Mel-37 cells (MTT assay); type: cell-based, human; conditions: 10 ng/mL IGF-I, 3- to 4-day
Description: as §1, with “A solution of MTT (3-(4,5)-dimethylthiazol-2-yl)-2,5-diphenyltetrazolium bromide; 25 μL of a 5 mg/mL solution in PBS) was then added and the cells were returned to the incubator for 2-3 h.” left out

[15] = test system: RD (rhabdomyocarcoma) cells; assay: Growth and survival of RD cells (MTT assay); type: cell-based, human; conditions: 10 ng/mL IGF-I, 3- to 4-day
Description: as §1

[16] = test system: SaOS-2 (osteosarcoma) cells; assay: Growth and survival of SaOS-2 cells (MTT assay); type: cell-based, human; conditions: 10 ng/mL IGF-I, 3- to 4-day
Description: as §1

[17] = test system: A 431 (epidermoid) cells; assay: Growth and survival of A 431 cells (MTT assay); type: cell-based, human; conditions: 10 ng/mL IGF-I, 3- to 4-day
Description: as §1

[18] = test system: SK-N-SH (neuroblastoma) cells; assay: Growth and survival of SK-N-SH cells (MTT assay); type: cell-based, human; conditions: 10 ng/mL IGF-I, 3- to 4-day
Description: as §1

[19] = test system: MCF-7 cells; assay: Cell cycle analysis of MCF-7 cells (propidium iodide, flow cytometry); type: cell-based, human; conditions: IGF-I 20 ng/mL with or without EM164 20 μg/mL, 1 day
Description: The EM164 antibody caused growth arrest of cells in G0/G1 phase of cell cycle and abrogated the mitogenic effect of IGF-I. For cell cycle analysis, MCF-7 cells were treated with IGF-I (20 ng/mL) in the presence or absence of EM164 (20 μg/mL) for 1 day and then analyzed by propidium iodide staining and flow cytometry.

[20] = biological target: biotinylated human IGF-I receptor; assay: ELISA binding titration (Kd) with biotinylated IGF-I receptor; conditions: ELISA titration, non-linear regression for one-site binding; read-out: dissociation constant (Kd)
Chain of biotinylated human IGF-I receptor (P08069 31-736 limits assumed): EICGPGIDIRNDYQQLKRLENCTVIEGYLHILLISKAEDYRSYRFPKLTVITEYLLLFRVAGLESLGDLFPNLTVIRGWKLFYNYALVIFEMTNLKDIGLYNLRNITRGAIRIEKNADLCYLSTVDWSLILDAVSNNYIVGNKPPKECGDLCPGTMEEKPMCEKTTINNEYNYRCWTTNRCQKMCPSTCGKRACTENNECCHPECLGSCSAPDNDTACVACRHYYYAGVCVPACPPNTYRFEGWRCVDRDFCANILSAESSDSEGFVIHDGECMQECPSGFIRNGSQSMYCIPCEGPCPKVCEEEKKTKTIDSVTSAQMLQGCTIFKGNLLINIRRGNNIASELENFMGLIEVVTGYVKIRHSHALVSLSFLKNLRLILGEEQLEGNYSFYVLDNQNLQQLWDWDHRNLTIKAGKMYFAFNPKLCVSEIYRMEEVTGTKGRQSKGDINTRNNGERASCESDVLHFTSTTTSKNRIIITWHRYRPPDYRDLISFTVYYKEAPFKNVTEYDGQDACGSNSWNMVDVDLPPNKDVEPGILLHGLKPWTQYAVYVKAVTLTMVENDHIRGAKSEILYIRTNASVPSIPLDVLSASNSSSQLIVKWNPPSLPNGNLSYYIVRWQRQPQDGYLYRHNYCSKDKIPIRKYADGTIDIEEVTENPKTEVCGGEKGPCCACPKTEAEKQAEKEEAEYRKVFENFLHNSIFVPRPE
Chain of biotinylated human IGF-I receptor (P08069 741-935 limits assumed): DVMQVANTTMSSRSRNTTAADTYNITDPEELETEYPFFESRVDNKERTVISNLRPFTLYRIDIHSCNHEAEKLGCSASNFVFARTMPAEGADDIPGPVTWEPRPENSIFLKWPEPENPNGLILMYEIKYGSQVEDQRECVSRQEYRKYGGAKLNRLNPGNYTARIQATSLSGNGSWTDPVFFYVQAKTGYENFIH
Description: The wells were next washed with TBS-T buffer and incubated with goat-anti-mouse-IgGH+L-antibody-horseradish peroxidase conjugate (100 μL; 0.5 μg/mL in blocking buffer), followed by washes and detection using ABTS/H2O2 substrate at 405 nm. The value of Kd was estimated by non-linear regression for one-site binding.
A similar binding titration was carried out using the Fab fragment of EM164 antibody, prepared by papain digestion of the antibody as described by E. Harlow and D. Lane (“Using Antibodies: A Laboratory Manual”; 1999, Cold Spring Harbor Laboratory Press, New York).

[21] = test system: biotinylated full-length human IGF-I receptor; assay: ELISA binding competition of humanized/chimeric versus murine EM164
Chain of biotinylated full-length human IGF-I receptor (P08069 31-498 limits assumed): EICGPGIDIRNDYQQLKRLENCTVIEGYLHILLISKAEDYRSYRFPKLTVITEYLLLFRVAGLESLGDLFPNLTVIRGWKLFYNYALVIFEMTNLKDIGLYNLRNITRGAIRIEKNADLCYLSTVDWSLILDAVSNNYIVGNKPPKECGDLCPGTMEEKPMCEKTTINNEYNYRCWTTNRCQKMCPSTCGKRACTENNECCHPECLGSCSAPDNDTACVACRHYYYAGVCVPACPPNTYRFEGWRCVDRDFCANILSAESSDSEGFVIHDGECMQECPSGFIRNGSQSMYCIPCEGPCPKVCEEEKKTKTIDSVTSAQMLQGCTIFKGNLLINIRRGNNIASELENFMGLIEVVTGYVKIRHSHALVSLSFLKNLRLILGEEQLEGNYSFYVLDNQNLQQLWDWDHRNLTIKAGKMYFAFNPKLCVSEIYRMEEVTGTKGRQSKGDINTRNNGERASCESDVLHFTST
Description: The affinities of the humanized EM164 antibody versions 1.0-1.3 were compared to those of murine EM164 antibody through binding competition assays using biotinylated full-length human IGF-I receptor or myc-epitope tagged truncated IGF-I receptor alpha chain, as described above. Humanized EM164 antibody samples were obtained by transient transfection of the appropriate expression vectors in human embryonic kidney 293T cells, and antibody concentrations were determined by ELISA using purified humanized antibody standards. For ELISA binding competition measurements, mixtures of humanized antibody samples and various concentrations of murine EM164 antibody were incubated with indirectly captured biotinylated full-length IGF-I receptor or myc-epitope tagged truncated IGF-I receptor alpha chain. After equilibration, the bound humanized antibody was detected using a goat-anti-human-Fab′2-antibody-horseradish peroxidase conjugate. Plots of ([bound murine Ab]/[bound humanized Ab]) vs ([murine Ab]/[humanized Ab]), which theoretically yield a straight line with slope=(Kd humanized Ab/Kd murine Ab), were used to determine the relative affinities of the humanized and murine antibodies.
An Immulon-2HB ELISA plate was coated with 100 μL of 5 μg/mL streptavidin per well in carbonate buffer at ambient temperature for 7 h. […] The wells were then washed with TBS-T buffer and incubated with goat-anti-human-Fab′2-antibody-horseradish peroxidase conjugate for 1 h (100 μL; 1 μg/mL in blocking buffer), followed by washes and detection using ABTS/H2O2 substrate at 405 nm.

Molecule: COc1c(O)c2c(c3cc(C(=O)N4CCc5c4c(O)c(OC)c4[nH]c(C(=O)N6CC7CC78C6=CC(=O)c6[nH]cc(C)c68)cc54)[nH]c13)CCN2C(N)=O (stereo not shown) [CC-1065]
- potency in vitro relative to doxorubicin, methotrexate and vincristine [1]: about 1000 fold

Molecule: CC(=O)O[C@H]1C(=O)[C@@]2(C)[C@H]([C@H](OC(=O)c3ccccc3)[C@]3(O)C[C@H](OC(=O)[C@H](O)[C@@H](NC(=O)c4ccccc4)c4ccccc4)C(C)=C1C3(C)C)[C@]1(OC(C)=O)CO[C@@H]1C[C@@H]2O [taxol, reference compound]
- growth of tumors [2]: effective until day 14

Molecule: IFN-α
- patients who responded to treatment [3]: 7 of 14

Molecule: IGF-I: insulin-like growth factor-I, ligand of the IGF-I receptor used as growth stimulant [reference compound]
- Fold growth response to IGF-I (MTT assay: ratio for IGF-I treated vs untreated cells in serum-free medium) ([4]; MCF-7 (breast), 10 ng/mL IGF-I, 3- to 4-day): 1.7-2.8
- Fold growth response to IGF-I (MTT assay: ratio for IGF-I treated vs untreated cells in serum-free medium) [5]: 2
- Fold growth response to IGF-I (MTT assay: ratio for IGF-I treated vs untreated cells in serum-free medium) [6]: 2.3
- Fold growth response to IGF-I (MTT assay: ratio for IGF-I treated vs untreated cells in serum-free medium) [7]: 1.5
- Fold growth response to IGF-I (MTT assay: ratio for IGF-I treated vs untreated cells in serum-free medium) [8]: 3
- Fold growth response to IGF-I (MTT assay: ratio for IGF-I treated vs untreated cells in serum-free medium) [9]: 1.6-1.8
- Fold growth response to IGF-I (MTT assay: ratio for IGF-I treated vs untreated cells in serum-free medium) [10]: 1.4
- Fold growth response to IGF-I (MTT assay: ratio for IGF-I treated vs untreated cells in serum-free medium) [11]: 1.4
- Fold growth response to IGF-I (MTT assay: ratio for IGF-I treated vs untreated cells in serum-free medium) [12]: 1.2
- Fold growth response to IGF-I (MTT assay: ratio for IGF-I treated vs untreated cells in serum-free medium) [13]: 1.6
- Fold growth response to IGF-I (MTT assay: ratio for IGF-I treated vs untreated cells in serum-free medium) [14]: 1.4
- Fold growth response to IGF-I (MTT assay: ratio for IGF-I treated vs untreated cells in serum-free medium) [15]: 1.7
- Fold growth response to IGF-I (MTT assay: ratio for IGF-I treated vs untreated cells in serum-free medium) [16]: 2.5
- Fold growth response to IGF-I (MTT assay: ratio for IGF-I treated vs untreated cells in serum-free medium) [17]: 2.2
- Fold growth response to IGF-I (MTT assay: ratio for IGF-I treated vs untreated cells in serum-free medium) [18]: 2
- cells in the G0/G1 phase [19]: 50%
- cells in the S phase [19]: 41%

B1: Fab fragment of EM164 antibody: Fab fragment of EM164 antibody, prepared by papain digestion (antibody, V domains shown)
VH: QVQLQQSGAELVKPGASVKLSCKASGYTFTSYWMHWVKQRPGQGLEWIGEINPSNGRTNYNEKFKRKATLTVDKSSSTAYMQLSSLTSEDSAVYYFARGRPDYYGSSKWYFDVWGAGTTVTVS
VL: DVLMTQTPLSLPVSLGDQASISCRSSQSIVHSNVNTYLEWYLQKPGQSPKLLIYKVSNRFSGVPDRFSGSGSGTDFTLRISRVEAEDLGIYYCFQGSHVPPTFGGGTKLEIKR
- Kd [20]: 0.3 nM

B2: humanized EM164 v1.0: resurfaced EM164 with all 10 human surface residues (light chain aa3 V, aa45 R) (antibody, V domains shown)
VH: QVQLVQSGAEVVKPGASVKLSCKASGYTFTSYWMHWVKQRPGQGLEWIGEINPSNGRTNYNQKFQGKATLTVDKSSSTAYMQLSSLTSEDSAVYYFARGRPDYYGSSKWYFDVWGQGTTVTVS
VL: DVVMTQTPLSLPVSLGDPASISCRSSQSIVHSNVNTYLEWYLQKPGQSPRLLIYKVSNRFSGVPDRFSGSGAGTDFTLRISRVEAEDLGIYYCFQGSHVPPTFGGGTKLEIKR
- inhibition of serum-stimulated growth and survival of MCF-7 cells, compared with murine EM164 [4]: similar
- slope (=Kd humanized Ab / Kd murine Ab) ([21]; biotinylated IGF-I receptor, FIG. 11, r^2=0.996): 0.52

B3: chimeric version of EM164 antibody with 92F→C mutation: chimeric version of EM164 antibody with 92F→C mutation in heavy chain (antibody, V domains shown)
VH: QVQLQQSGAELVKPGASVKLSCKASGYTFTSYWMHWVKQRPGQGLEWIGEINPSNGRTNYNEKFKRKATLTVDKSSSTAYMQLSSLTSEDSAVYYCARGRPDYYGSSKWYFDVWGAGTTVTVSS
VL: DVLMTQTPLSLPVSLGDQASISCRSSQSIVHSNVNTYLEWYLQKPGQSPKLLIYKVSNRFSGVPDRFSGSGSGTDFTLRISRVEAEDLGIYYCFQGSHVPPTFGGGTKLEIK
- lower affinity than murine EM164 antibody for binding to IGF-I receptor [21]: 3 fold
- slope in binding competition with murine EM164 antibody ([21]; similar binding competition): about 3
